Experimental findings from patent US10124046B2, “HLA-DR-binding antigen peptide derived from WT1” (International Institute of Cancer Immunology, Inc., priority 2003, dated 2018) are described below.

What all share (assay type): cell-based, human
Assay [1] has as its system CD4-positive T cells (helper T cells). The assay can be described thus: Proliferative response ([3H]-thymidine uptake) of WT1332-347-stimulated CD4-positive T cells to peptide-pulsed dendritic cells. The note with it: cocultured with dendritic cells pulsed with 20 μg/ml peptide; HLA-DRB1*0405-positive healthy volunteer; FIG. 1. Here is the method:
Peripheral blood mononuclear cells (PBMCs) were isolated by density gradient centrifugation with Ficoll-Paque from blood of an HLA-DRB1*0405-positive healthy volunteer. The resultant 8×10^6 PBMCs were suspended in 2 ml of X-VIVO 15™ medium (Camblex) containing 1% AB serum, seeded in a 6-well culture plate, and cultured for 2 hours. After cultivation, non-adherent cells were removed, and the adherent cells were washed with Hanks solution. Adherent cells were cultured in X-VIVO 15™ medium containing 1% AB serum, 1000 U/ml IL-4 and 1000 U/ml GM-CSF. On days 2 and 4 of cultivation, one-half of medium was replaced by fresh medium. On day 6, TNF-α was added to make the final concentration of 100 U/ml. Cells existing on day 7 were used as dendritic cells in the experiment.
Blood obtained from the same healthy volunteer as in (1) above was used. Blood was diluted by 2-times with RPMI medium. To about 100 ml of the diluted blood was added antibody cocktail, RosetteSep™ (Stemcell) for separation of CD4-positive T cells, and the mixture was left to stand at room temperature for 20 minutes. CD4-positive T cells were then collected by density gradient centrifugation with Ficoll-Paque.
Dendritic cells prepared in (1) above were seeded in 24-well culture plate at 3×10^5 cells/well, and a peptide of SEQ ID NO: 24 was added up to 50 μg/ml. After 4-hour-cultivation, cell growth was stopped by X-ray irradiation (25 Gy). CD4-positive cells prepared in (2) above were added to each well at 3×10^6 cells/well and cocultured with dendritic cells. As medium, X-VIVO 15™ medium containing 1% AB serum was used. After the cultivation was started, one half of medium was replaced with fresh medium every 2 days and IL-2 was added up to 20 U/ml. […]
After the third stimulation, T cells were recovered and seeded in 96-well plate at 3×10^4 cells/well. […] [^3H]-thymidine incorporated by cells was then measured using β-scintillation counter.

For a further assay, the system named is G2 cell line. The assay can be described thus: Responsiveness of G2 cell line to dendritic cells pulsed with peptide. The note with it: cocultured with dendritic cells pulsed with peptide; FIG. 2. The method, then: Dendritic cells prepared in a manner similar to Example 1 were seeded in 96-well plate at 10^4 cells/well, and then CD4-positive T cells induced by WT1332-347 peptide (SEQ ID NO: 24) were seeded at 10^3 cells/well. As medium, X-VIVO 15™ medium containing 1% AB serum, 20 U/ml IL-2 and 5 μg/ml PHA was used. CD4-positive T-cell line was established by continued cultivation and named as “G2 cell line”. Responsiveness of G2 cell line to dendritic cells pulsed with a peptide was measured by a similar method to Example 1.

The next assay deals with E04.1 cell line. Briefly: Responsiveness of E04.1 cell line to dendritic cells pulsed with WT1332-347 peptide. The note with it: cocultured with dendritic cells pulsed with peptide; FIG. 4. The method, then:
Dendritic cells were prepared using blood isolated from an HLA-DRB1*0405-positive healthy volunteer in a manner similar to Example 1 except that the final concentration of TNF-α added on day 6 was 200 IU/ml. CD4-positive T cells were prepared using blood obtained from the same healthy volunteer as that used for the preparation of dendritic cells. CD4-positive T cells were separated according to the instructions of RosetteSep (StemCell) for separation of CD4-positive T cells.
The above-described dendritic cells and CD4-positive T cells were used to induce CD4-positive T cells specific for a WT1 peptide (SEQ ID NO: 24, WT1332-347) in a manner similar to Example 1. The resultant CD4-positive T cells specific for WT1332-347 peptide were cultured continuously by limiting dilution technique to establish CD4-positive T-cell line E04.1. As feeder cells in the limiting dilution technique, PBMCs prepared in a manner similar to Example 1 and treated by X-ray irradiation were seeded at 1×10^5 cells/well. As medium, X-VIVO 15™ medium containing 20 IU/ml IL-2 and 5 μg/ml PHA was used.
Responsiveness of E04.1 cell line to dendritic cells pulsed with WT1332-347 peptide was measured by a similar method to Example 1 except that cultivation was continued for 18 hours after adding [^3H]-thymidine.

Assay [2] concerns E15.2 subline. Briefly: Responsiveness of E15.1 / E15.2 sublines to autologous PBMCs pulsed with WT1332-347 peptide. Here is the method: Growth assay was conducted by [^3H]-thymidine incorporation method. CD4-positive T cells induced by stimulation with a peptide (3×10^4 cells; responder) were cocultured with PBMCs pulsed with a peptide selected from WT1332-347, WT1172-186 and WT1225-243 peptides and undergone radiation irradiation (1×10^5 cells, “stimulator”) in a 96-well plate. As a negative control, DC(−) not pulsed with a peptide was used. After 80-hour-cocultivation, [^3H]-thymidine (Amersham Biosciences) was added at 37 kBq/well. The plate was incubated for another 16 hours and measured with β scintillation counter. Measurement unit is “count per minute (cpm)”, and every assay was carried out in triplicate.
These dominant CD4-positive T cells were separated by sorting and the cell line having Vβ3 was named as E15.1 subline, while the one having Vβ20 as E15.2 subline.
(§1) E15.2 subline was then stimulated with WT1332-347 peptide, and the secreted IL-4 and IFN-γ were measured by Intracellular stain method.

Assay [3] has as its system E15.2 subline. The assay can be described thus: Cytokine production of E15.2 subline (intracellular stain method). The note with it: stimulated with peptide; FIG. 16. Here is the method: In the same manner as growth assay, CD4-positive T cells were cocultured with stimulators for 2 hours, and thereto was added Brefeldin A. Four hours later, cells were recovered, subjected to treatment for fixation and permeation, stained with FITC-labeled anti-IL-4 antibody (BD Pharmingen) and PE-labeled anti-IFN-γ antibody (BD Pharmingen), and analyzed by flow cytometry.
as §1

“KRYFKLSHLQMHSRKH [WT1332-347, Position 332-347 of human WT1]”: in assay [1], the “proliferative response of CD4-positive T cells stimulated with WT1332-347 ([3H]-thymidine uptake)” value was “showed proliferative response”. Besides, the “proliferative response of G2 cell line” value with G2 cell line is “showed proliferative response”. The “proliferative response of E04.1 cells” value in the assay with E04.1 cell line is listed as “showed proliferative response”. Moreover, the “responsiveness of E15.2 subline to peptide compared with E15.1 subline” value in the assay with E15.2 subline [2] (autologous PBMCs pulsed with peptide, FIG. 15) is given as “higher responsiveness”. Also, the “concentration dependence of specific proliferative-response of E15.2 subline” value in the assay on E15.2 subline [2] (peptide pulsed into autologous PBMCs, FIG. 17) is given as “depends on the concentration”. For the same sequence, in the assay on E15.2 subline [3], the “IFN-γ production by E15.2 subline” value is “dominantly produced” and the “IL-4 production by E15.2 subline” value is “not IL-4”.
